In publication PMC12362615, “Design, Synthesis, and Cellular Characterization of a New Class of IPMK Kinase Inhibitors” (Journal of Medicinal Chemistry, 2025):
“Also recorded” adds a separate entry of the source.

Legend:
S6Kb = assay: Protein kinase profiling, Mobility Shift Assay (Carna Biosciences); format: biochemical, human
Protocol: Protein kinase profiling of compound 14 was executed by Carna Biosciences. Briefly, compound 14 was prepared by dissolving it in dimethyl sulfoxide (DMSO) and then further diluting it in DMSO to a concentration of 25 μM. That stock solution was further diluted 25-fold with kinase assay buffer (20 mM HEPES, 0.01% Triton X-100, 2 mM DTT, pH 7.5) to make the final 1 μM compound 14 solution. Reference compounds for the assay controls were prepared similarly. The off-chip Mobility Shift Assay (MSA) was prepared with 5 μL of 4× compound solution, 5 μL of 4× substrate/ATP/metal solution, and 10 μL of 2× kinase solution, prepared with assay buffer (20 mM HEPES, 0.01% Triton X-100, 2 mM DTT, pH 7.5). The components were mixed and incubated in a polypropylene 384-well microplate for 1 h or 5 h at room temperature, depending on the kinase being tested. […]

[1] = system: human U251-MG glioblastoma cells; assay: CyQuant cell count / proliferation assay; format: cell-based; conditions: 48 h
Protocol: 1 Compound 1 inhibits human U251 glioblastoma cell growth and labeled inositol phosphate levels. (A) Schematic of inositol phosphate metabolism. (B) Chemical structure of compound 1, indicating moiety A (blue highlight), the core (gray highlight), and moiety B (red highlight), and the IC50 value as determined by the kinase-GLO assay. (C) CyQuant cell count assay of 10,000 human U251-MG glioblastoma cells seeded per well, treated for 48 h with DMSO vehicle or 400 nM compound 1 (n = 8, ***p = 0.0046, unpaired t test). (D) HPLC analysis of ^3H-inositol phosphates from U251-MG cells treated with 400 nM compound 1 (red bars) or DMSO (blue bars) and metabolically labeled with ^3H-inositol for 48 h, expressed as the percentage of the inositol peak from the HPLC for InsP3, InsP4, InsP5, and InsP6, as indicated, *p < 0.05 by unpaired t test Bonferroni corrected for multiple comparisons. (E) Same data as in (D) replotted with a nonzero y-axis to facilitate visualizing differences between DMSO vs. compound treatment for each indicated inositol phosphate species, *p < 0.05 by unpaired t test Bonferroni corrected for multiple comparisons.
Error represents the standard error from 3 independent assays. (B) CyQuant cellular proliferation assay of 10,000 human U251-MG glioblastoma cells seeded per well, treated for 48 h with DMSO vehicle or 10 μM 14 (n = 8, ****p adj < 0.0001 by one-way ANOVA, Dunnett’s corrected; *p < 0.05 by unpaired t test). (C) HPLC analysis of ^3H-inositol phosphates from U251-MG cells treated with 10 μM compound 14 (red bars) or DMSO (blue bars) and metabolically labeled with ^3H-inositol for 48 h, expressed as a percentage of all the peaks detectable from the HPLC, *p < 0.05, **p < 0.01, ***p < 0.001 by unpaired t test compared to DMSO-treated control for all remaining panels, n = 3. (D) Same as (C) but expressed as a percentage of the inositol HPLC peak, n = 3. (E) Same as C but expressed as a percentage of all the inositol phosphate peaks combined from the HPLC, n = 3.

[2] = system: inositol phosphate levels in U251-MG cells; assay: 3H-inositol metabolic labeling and HPLC of inositol phosphates; format: cell-based, human; conditions: 10 μM, vs DMSO
Protocol: Human U251-MG glioblastoma cells (ECACC 09063001) were grown in DMEM supplemented with 10% FBS. The medium was changed to inositol-free DMEM, and cells were inositol-starved for 1–3 days. Cells were maintained in inositol-free DMEM medium, treated with the indicated inhibitor or DMSO for 1–2.5 h, and supplemented with 100 μCi ^3H-inositol (PerkinElmer) for 48 or 72 h, as indicated on each figure. Cells were then washed in PBS and lysed in 200 μL HCl (0.5 M), 250 μL of MeOH was added to each well of a 6-well plate (approximately 10^6 cells), followed by 125 μL of 2 M KCl. Lysates were scraped and sonicated on ice for three 1 min cycles. Inositol phosphate (IP) extracts were cleaned of lipids by adding 250 μL of CHCl3, vortexing and centrifuging samples for 2 min at 5000 rpm to separate upper aqueous and lower organic phases, upper phase contains soluble IPs. This extraction was repeated once. Samples were dried in a SpeedVac, resuspended in 10 mM ammonium phosphate (pH= 3.5), and filtered. HPLC separation and detection of the inositol species on the upper phase used a Partisphere SAX 4.6 mm × 250 mm column, eluted with 10 mM (buffer A) to 1.3 M (buffer B) ammonium phosphate (pH = 3.8) and online flow scintillation analyzer (FSA, PerkinElmer). Elution of [^32P]-labeled IP4, IP5, and IP6 standards confirmed the identity of each peak off the HPLC. Quantification represents three biologically independent metabolic labeling samples with error representing the standard deviation of the mean.

[3] = system: SF-1 target genes in HEK293 cells bearing tetracycline-inducible SF-1; assay: RT-qPCR analysis of SF-1 target genes; format: cell-based, human; design: key to relative NR0B2 expression vs DMSO + TET control / relative StAR expression vs DMSO + TET control: ns = not significant; *p<0.05; ****p<0.0001; conditions: for relative CYP11A1 expression vs DMSO + TET control / relative NR0B2 expression vs DMSO + TET control / relative StAR expression vs DMSO + TET control: 24 h, HEK293 Tet-inducible SF-1

Structure (SMILES): c1cc(-c2onc3ccc(-c4nnn[nH]4)cc23)cc(C2CCN(C3CCC3)CC2)c1 [Compound 14, 3-(3-(1-Cyclobutylpiperidin-4-yl)phenyl)-5-(1H-tetrazol-5-yl)benzo[c]isoxazole]
- % Inhibition at 1.0 μM 14 (S6Kb): 9.4%
- cell growth ([1]; 1.0 μM): decreased cell growth
- cell growth, CyQuant cellular proliferation assay ([1]; 10 μM, vs DMSO): inhibits cell growth
- decrease of InsP5 levels ([2]; 48 h): 50%
- increase of InsP4 levels ([2]; 48 h): about 50%
- level of InsP6 ([2]; 48 h): no change
- IP6 levels ([2]; 72 h): did not change; also recorded: does not decrease
- InsP4 levels ([2]; 72 h): rose slightly
- InsP7 levels ([2]; 72 h): did not change; also recorded: does not decrease
- relative CYP11A1 expression vs DMSO + TET control ([3]; 10 μM): * (*p<0.05)
- relative NR0B2 expression vs DMSO + TET control ([3]; 10 μM): ns
- relative StAR expression vs DMSO + TET control ([3]; 10 μM): ns
- relative CYP11A1 expression vs DMSO + TET control ([3]; 30 μM): * (*p<0.05)
- relative NR0B2 expression vs DMSO + TET control ([3]; 30 μM): * (*p<0.05)
- relative StAR expression vs DMSO + TET control ([3]; 30 μM): * (*p<0.05)
- relative CYP11A1 expression vs DMSO + TET control ([3]; 50 μM): **** (****p<0.0001)
- relative NR0B2 expression vs DMSO + TET control ([3]; 50 μM): **** (****p<0.0001)
- relative StAR expression vs DMSO + TET control ([3]; 50 μM): **** (****p<0.0001)
- regulation of nuclear receptor SF-1 target genes ([3]; HEK293 cells with Tet-inducible SF-1, 24 h): can regulate these target genes; also recorded: able to regulate nuclear receptor SF-1 target genes; also recorded: did detect changes
